Here are results for 24 compounds from US9670193B2 (Novartis AG, priority 2011, dated 2017).

By IC50 is commonly meant the concentration that gives 50% inhibition.

Holding throughout (format): biochemical
Common to all, as to details: 5 μM substrate, 2 hours at room temperature

The target of experiment [1] is Human recombinant full length HDAC1 (Homo sapiens (Human), UniProt Q13547). Description: HDAC1 assay (Test 2), acetyl-Gly-Ala-Lys(acetyl)-AMC substrate. The protocol:
(§1) Human recombinant HDAC4 was expressed in full length form (aa 2-1084) in Sf9 insect cells (obtained from ATCC) using baculovirus generated with Bac-to-Bac system (Invitrogen). Test compounds were serially diluted to reach final test concentrations from 0.000128 μM to 10 μM. HDAC4 and test compounds were incubated in 25 mM Tris buffer pH 8.0 containing 137 mM NaCl, 2.7 mM KCl, 1 mM MgCl2, 0.05% (w/v) bovine serum albumine and 0.005% (v/v) Triton-X-100 for 2 hours at room temperature in presence of 5 μM of acetyl-Gly-Ala-Lys(ε-trifluoroacetyl)-AMC (AMC=7-amino-4-methyl coumarin) in a final volume of 9 μl. Control wells with HDAC4 only (positive control) and without HDAC4 (negative control) were included on the microplate. Bovine trypsin (4.5 μl of a 300 nM solution) was added and the plate incubated for additional 15 minutes at room temperature. The plate was placed in a fluorescence microplate reader, and read at an excitation wavelength of 360 nm and an emission wavelength of 450 nm with a 10 nm bandpath. Fluorescence values for all wells containing HDAC4 (positive control and wells with test compound) were corrected by subtracting negative control fluorescence values, and IC50 values were calculated by fitting the dose-response curves to a 4-parameter logistic function.
Test 2: HDAC1 Assay Description
A similar assay procedure as described in Test 1 was used for HDAC1. Human recombinant full length HDAC1 expressed in a baculovirus expression system was purchased from BPS BioSciences (San Diego, Calif., U.S.A.). The substrate used in the […] assay was 5 μM of acetyl-Gly-Ala-Lys(acetyl)-AMC.

For experiment [2], the target named is Human recombinant full length HDAC6 (Homo sapiens (Human), UniProt Q9UBN7). The experiment in a line: HDAC6 assay (Test 3), acetyl-Gly-Ala-Lys(acetyl)-AMC substrate. Here is the method:
as §1
Test 3: HDAC6 Assay Description
A similar assay procedure as described in Test 1 was used for HDAC6. Human recombinant full length HDAC6 expressed in a baculovirus expression system was purchased from BPS BioSciences (San Diego, Calif., U.S.A.). The substrate used in the […] assay was 5 μM of acetyl-Gly-Ala-Lys (acetyl)-AMC.

Another experiment addresses Human recombinant HDAC4 (Homo sapiens (Human), UniProt P56524). The experiment in a line: HDAC4 assay (Test 1), fluorescence, acetyl-Gly-Ala-Lys(ε-trifluoroacetyl)-AMC substrate. Here is the method: Test 1: HDAC4 Assay Description
as §1

Human recombinant full length HDAC1, sequence (Q13547 whole entry, the tested form may be a part): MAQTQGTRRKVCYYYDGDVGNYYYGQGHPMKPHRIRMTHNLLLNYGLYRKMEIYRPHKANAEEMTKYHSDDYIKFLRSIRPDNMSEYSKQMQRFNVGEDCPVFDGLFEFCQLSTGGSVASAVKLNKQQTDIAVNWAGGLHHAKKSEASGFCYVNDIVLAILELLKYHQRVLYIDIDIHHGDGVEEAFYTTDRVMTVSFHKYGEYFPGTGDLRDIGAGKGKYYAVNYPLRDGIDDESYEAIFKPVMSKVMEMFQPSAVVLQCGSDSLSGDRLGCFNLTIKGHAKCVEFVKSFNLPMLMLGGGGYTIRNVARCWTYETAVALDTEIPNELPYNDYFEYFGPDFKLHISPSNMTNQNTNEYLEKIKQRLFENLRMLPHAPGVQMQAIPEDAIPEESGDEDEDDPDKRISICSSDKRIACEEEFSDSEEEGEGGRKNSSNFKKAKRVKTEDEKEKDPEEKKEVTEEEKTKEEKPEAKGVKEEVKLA
Human recombinant full length HDAC6, sequence (Q9UBN7 whole entry): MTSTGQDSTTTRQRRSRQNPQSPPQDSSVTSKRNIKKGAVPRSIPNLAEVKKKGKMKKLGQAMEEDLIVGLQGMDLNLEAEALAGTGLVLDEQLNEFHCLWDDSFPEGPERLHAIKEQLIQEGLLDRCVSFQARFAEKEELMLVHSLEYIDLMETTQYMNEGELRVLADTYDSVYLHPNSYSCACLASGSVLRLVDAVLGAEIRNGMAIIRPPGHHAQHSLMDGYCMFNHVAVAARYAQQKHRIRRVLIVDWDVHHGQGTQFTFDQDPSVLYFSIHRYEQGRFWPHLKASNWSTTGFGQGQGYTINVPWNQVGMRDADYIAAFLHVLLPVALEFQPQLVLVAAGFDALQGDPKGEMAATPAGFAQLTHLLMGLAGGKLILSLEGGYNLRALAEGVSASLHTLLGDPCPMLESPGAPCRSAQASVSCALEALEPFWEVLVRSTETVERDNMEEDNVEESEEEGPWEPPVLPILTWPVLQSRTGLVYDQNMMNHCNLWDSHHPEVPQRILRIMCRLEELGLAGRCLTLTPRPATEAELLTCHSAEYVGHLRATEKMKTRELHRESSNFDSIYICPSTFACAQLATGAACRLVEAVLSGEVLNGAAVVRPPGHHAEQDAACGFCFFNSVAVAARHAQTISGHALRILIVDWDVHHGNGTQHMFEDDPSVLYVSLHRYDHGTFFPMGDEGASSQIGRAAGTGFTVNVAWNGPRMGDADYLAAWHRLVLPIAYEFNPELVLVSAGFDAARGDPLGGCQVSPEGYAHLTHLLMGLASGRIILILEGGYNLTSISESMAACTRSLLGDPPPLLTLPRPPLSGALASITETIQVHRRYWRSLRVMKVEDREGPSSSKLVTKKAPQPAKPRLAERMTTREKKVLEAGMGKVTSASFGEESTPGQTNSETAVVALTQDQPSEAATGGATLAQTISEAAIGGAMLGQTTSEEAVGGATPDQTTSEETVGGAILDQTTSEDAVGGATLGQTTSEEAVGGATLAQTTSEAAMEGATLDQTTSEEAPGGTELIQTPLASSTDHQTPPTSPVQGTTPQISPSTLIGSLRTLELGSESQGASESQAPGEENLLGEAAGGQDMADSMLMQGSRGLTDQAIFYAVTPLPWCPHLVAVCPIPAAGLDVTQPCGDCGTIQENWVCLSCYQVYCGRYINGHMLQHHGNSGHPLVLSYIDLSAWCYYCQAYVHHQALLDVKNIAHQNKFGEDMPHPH
Human recombinant HDAC4, sequence (P56524 2-1084): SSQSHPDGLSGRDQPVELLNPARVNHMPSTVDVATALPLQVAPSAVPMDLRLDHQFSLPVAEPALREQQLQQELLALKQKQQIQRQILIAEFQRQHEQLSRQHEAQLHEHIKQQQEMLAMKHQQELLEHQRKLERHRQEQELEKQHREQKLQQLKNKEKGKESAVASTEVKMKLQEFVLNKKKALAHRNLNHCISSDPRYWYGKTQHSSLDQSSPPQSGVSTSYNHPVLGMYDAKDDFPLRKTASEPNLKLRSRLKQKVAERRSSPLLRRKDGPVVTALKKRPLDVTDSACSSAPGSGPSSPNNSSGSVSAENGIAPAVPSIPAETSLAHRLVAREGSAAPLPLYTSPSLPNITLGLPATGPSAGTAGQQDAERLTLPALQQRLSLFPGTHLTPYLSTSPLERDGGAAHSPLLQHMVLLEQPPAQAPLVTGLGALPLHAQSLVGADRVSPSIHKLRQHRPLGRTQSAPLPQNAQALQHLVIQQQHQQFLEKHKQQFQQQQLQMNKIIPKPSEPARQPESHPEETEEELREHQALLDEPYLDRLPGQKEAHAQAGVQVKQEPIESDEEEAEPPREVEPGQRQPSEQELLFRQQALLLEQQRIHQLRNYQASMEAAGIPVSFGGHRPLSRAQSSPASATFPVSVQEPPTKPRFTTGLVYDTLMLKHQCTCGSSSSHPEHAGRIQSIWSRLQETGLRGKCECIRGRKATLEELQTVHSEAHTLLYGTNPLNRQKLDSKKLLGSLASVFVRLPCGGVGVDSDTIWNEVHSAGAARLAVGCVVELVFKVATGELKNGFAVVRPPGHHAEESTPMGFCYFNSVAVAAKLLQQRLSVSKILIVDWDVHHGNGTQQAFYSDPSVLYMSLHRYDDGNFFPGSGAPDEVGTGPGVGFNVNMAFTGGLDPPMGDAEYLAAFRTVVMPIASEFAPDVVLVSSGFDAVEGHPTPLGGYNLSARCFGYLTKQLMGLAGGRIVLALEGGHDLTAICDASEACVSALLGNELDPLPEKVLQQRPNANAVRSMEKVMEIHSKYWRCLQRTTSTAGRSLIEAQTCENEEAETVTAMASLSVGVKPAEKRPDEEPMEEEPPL

With `CCN(CC)C[C@@H](C)NC(=O)c1ccc(-c2noc(C(F)(F)F)n2)nc1` [Example 23, (R)—N-(1-(diethylamino)propan-2-yl)-6-(5-(trifluoromethyl)-1,2,4-oxadiazol-3-yl)nicotinamide], the results for the half-maximal inhibitory concentration (IC50) (in experiment [1]; in experiment [2]; at Human recombinant HDAC4) were more than 10 µM, more than 10 µM and 0.028 µM, respectively.
Consider `C[C@H](CN(C)C)NC(=O)c1ccc(-c2noc(C(F)(F)F)n2)cn1` [Example 24, (R)—N-(1-(dimethylamino)propan-2-yl)-5-(5-(trifluoromethyl)-1,2,4-oxadiazol-3-yl)picolinamide], for which the figures for the IC50 (in experiment [1]; in experiment [2]; at Human recombinant HDAC4) were more than 10 µM, more than 10 µM and 0.99 µM, respectively.
In the case of `C[C@H](CN(C)C)NC(=O)c1ncc(-c2noc(C(F)(F)F)n2)cc1Cl` [Example 25, (R)-3-chloro-N-(1-(dimethylamino)propan-2-yl)-5-(5-(trifluoromethyl)-1,2,4-oxadiazol-3-yl)picolinamide], the half-maximal inhibitory concentration (IC50) in experiment [1] is more than 10 µM; in experiment [2], more than 10 µM; on Human recombinant HDAC4, 3.6 µM.
With `C[C@H](CN(C)C)NC(=O)c1cnc(-c2noc(C(F)(F)F)n2)nc1` [Example 26, (R)—N-(1-(dimethylamino)propan-2-yl)-2-(5-(trifluoromethyl)-1,2,4-oxadiazol-3-yl)pyrimidine-5-carboxamide], the results for the IC50 (in experiment [1]; in experiment [2]; on Human recombinant HDAC4) were more than 10 µM, more than 10 µM and 0.42 µM, respectively.
As for `FC(F)(F)c1nc(-c2ccc(NCc3ccccc3)cn2)no1` [Example 27, N-benzyl-6-(5-(trifluoromethyl)-1,2,4-oxadiazol-3-yl)pyridin-3-amine], the half-inhibitory concentration (IC50) was 9.6 µM in experiment [1], more than 10 µM in experiment [2] and 2.8 µM at Human recombinant HDAC4.
With `FC(F)(F)c1nc(-c2ccc(NCc3ccccc3)nc2)no1` [Example 28, N-benzyl-5-(5-(trifluoromethyl)-1,2,4-oxadiazol-3-yl)pyridin-2-amine], the half-inhibitory concentration (IC50) is more than 10 µM in experiment [1], 3 µM in experiment [2] and 0.073 µM at Human recombinant HDAC4.
On to `CC(Nc1ccc(-c2noc(C(F)(F)F)n2)cn1)c1ccccc1` (stereo not drawn) [Example 29, N-(1-phenylethyl)-5-(5-(trifluoromethyl)-1,2,4-oxadiazol-3-yl)pyridin-2-amine], for which the IC50 in experiment [1] is 6.2 µM; in experiment [2], 0.64 µM; on Human recombinant HDAC4 it was 0.027 µM.
For `FC(F)(F)c1nc(-c2ccc(NCc3cccnc3)nc2)no1` [Example 30, N-(pyridin-3-ylmethyl)-5-(5-(trifluoromethyl)-1,2,4-oxadiazol-3-yl)pyridin-2-amine], the IC50 is 6.1 µM in experiment [1], 1.8 µM in experiment [2] and 0.079 µM on Human recombinant HDAC4.
With `FC(F)(F)c1nc(-c2ccc(NCc3ccncc3)nc2)no1` [Example 31, N-(pyridin-4-ylmethyl)-5-(5-(trifluoromethyl)-1,2,4-oxadiazol-3-yl)pyridin-2-amine], the IC50 in experiment [1] stood at 4.5 µM; in experiment [2], 1.6 µM; on Human recombinant HDAC4, 0.041 µM.
On to `Cc1ccc(CNc2ccc(-c3noc(C(F)(F)F)n3)cn2)cn1` [Example 32, N-((6-methylpyridin-3-yl)methyl)-5-(5-(trifluoromethyl)-1,2,4-oxadiazol-3-yl)pyridin-2-amine], for which the IC50 was determined as 2.4 µM in experiment [1], 0.77 µM in experiment [2] and 0.063 µM on Human recombinant HDAC4.
As for `FC(F)(F)c1nc(-c2cnc(NCc3ccccc3)c(Cl)c2)no1` [Example 33, N-benzyl-3-chloro-5-(5-(trifluoromethyl)-1,2,4-oxadiazol-3-yl)pyridin-2-amine], the IC50 in experiment [1] is more than 10 µM; in experiment [2], more than 10 µM; on Human recombinant HDAC4, 0.093 µM.
In the case of `C[C@@H](Nc1ncc(-c2noc(C(F)(F)F)n2)cc1Cl)c1ccccc1` [Example 34, (R)-3-chloro-N-(1-phenylethyl)-5-(5-(trifluoromethyl)-1,2,4-oxadiazol-3-yl)pyridin-2-amine], the IC50 in experiment [1] is 6.3 µM; in experiment [2], 4.5 µM; at Human recombinant HDAC4, 0.047 µM.
For `FC(F)(F)c1nc(-c2cnc(NCc3ccncc3)c(Cl)c2)no1` [Example 35, 3-chloro-N-(pyridin-4-ylmethyl)-5-(5-(trifluoromethyl)-1,2,4-oxadiazol-3-yl)pyridin-2-amine], the IC50 in experiment [1] came to 1.1 µM; in experiment [2] it was 1.8 µM; at Human recombinant HDAC4 it was 0.011 µM.
For `CC(Nc1ncc(-c2noc(C(F)(F)F)n2)cc1Cl)c1ccncc1` (stereo not drawn) [Example 36, 3-chloro-N-(1-(pyridin-4-yl)ethyl)-5-(5-(trifluoromethyl)-1,2,4-oxadiazol-3-yl)pyridin-2-amine], in that order: 0.86 µM, 1.1 µM and 0.0064 µM.
Take `FC(F)(F)c1nc(-c2cnc(NCc3cccnc3)c(Cl)c2)no1` [Example 37, 3-chloro-N-(pyridin-3-ylmethyl)-5-(5-(trifluoromethyl)-1,2,4-oxadiazol-3-yl)pyridin-2-amine]: the figures for the IC50 (in experiment [1]; in experiment [2]; at Human recombinant HDAC4) were 1.2 µM, 2 µM and 0.019 µM, respectively.
Consider `Cc1ccc(CNc2ncc(-c3noc(C(F)(F)F)n3)cc2Cl)cn1` [Example 38, 3-Chloro-N-((6-methylpyridin-3-yl)methyl)-5-(5-(trifluoromethyl)-1,2,4-oxadiazol-3-yl)pyridin-2-amine], for which the IC50 in experiment [1] came to 1.4 µM; in experiment [2], 1.55 µM; on Human recombinant HDAC4 it was 0.021 µM.
In the case of `FC(F)(F)c1nc(-c2cnc(NCc3ccccn3)c(Cl)c2)no1` [Example 39, 3-chloro-N-(pyridin-2-ylmethyl)-5-(5-(trifluoromethyl)-1,2,4-oxadiazol-3-yl)pyridin-2-amine], the IC50 in experiment [1] worked out at 2.5 µM; in experiment [2], 1.9 µM; at Human recombinant HDAC4, 0.037 µM.
For the compound `FC(F)(F)c1nc(-c2ccc(NCc3ccccc3)nn2)no1` [Example 40, N-benzyl-6-(5-(trifluoromethyl)-1,2,4-oxadiazol-3-yl)pyridazin-3-amine], the IC50 turned out to be 7.9 µM in experiment [1], 0.84 µM in experiment [2] and 0.2 µM on Human recombinant HDAC4.
Regarding `C[C@@H](Nc1cnc(-c2noc(C(F)(F)F)n2)nc1)c1ccccc1` [Example 41, (R)—N-(1-Phenylethyl)-2-(5-(trifluoromethyl)-1,2,4-oxadiazol-3-yl)pyrimidin-5-amine], the IC50 in experiment [1] was determined as 4 µM; in experiment [2], 1.3 µM; at Human recombinant HDAC4, 0.06 µM.
Regarding `C[C@H](Nc1cnc(-c2noc(C(F)(F)F)n2)nc1)c1ccccc1` [Example 42, (S)—N-(1-Phenylethyl)-2-(5-(trifluoromethyl)-1,2,4-oxadiazol-3-yl)pyrimidin-5-amine], the IC50 in experiment [1] was more than 10 µM; in experiment [2], 1.9 µM; at Human recombinant HDAC4 it was 5 µM.
For the compound `FC(F)(F)c1nc(-c2ncc(NCc3ccncc3)cn2)no1` [Example 43, N-(Pyridin-4-ylmethyl)-2-(5-(trifluoromethyl)-1,2,4-oxadiazol-3-yl)pyrimidin-5-amine], the figures for the IC50 (in experiment [1]; in experiment [2]; at Human recombinant HDAC4) were 4.7 µM, 1.1 µM and 0.19 µM, respectively.
For the compound `C[C@@H](Nc1ccc(-c2noc(C(F)(F)F)n2)cn1)c1ccncc1` [Example 44], the IC50 was 2.7 µM in experiment [1], 1.03 µM in experiment [2] and 0.029 µM on Human recombinant HDAC4.
For `C[C@@H](Nc1ccc(-c2noc(C(F)(F)F)n2)nn1)c1ccncc1` [Example 45, (R)—N-(1-(Pyridin-4-yl)ethyl)-6-(5-(trifluoromethyl)-1,2,4-oxadiazol-3-yl)pyridazin-3-amine] the same measures were 3.2 µM, 0.61 µM and 0.065 µM.
For `C[C@H](CN(C)Cc1ccccc1)NC(=O)c1cnc(-c2noc(C(F)(F)F)n2)nc1` [Example 46], in that order: more than 10 µM, more than 10 µM and 0.066 µM.
